Experimental data reported in PMC6881293, “Nanomolar-potency ‘co-potentiator’ therapy for cystic fibrosis caused by a defined subset of minimal function CFTR mutants” (Scientific Reports, 2019).

Tests used:
Format in all cases: cell-based
W1282X-CFTR [1] = molecular target: T1, W1282X-CFTR (Homo sapiens, UniProt P13569); assay: Structure-activity testing of analogs in FRT cells expressing W1282X-CFTR
T1 construct: expressed in transfected cells
Procedure: To establish structure-activity relationships, 240 commercially available piperidinepyridoindole analogs and 160 pyrazoloquinoline analogs were tested in FRT cells expressing W1282X-CFTR. In general, the methoxy substituent on the 4-position (R^3) on the pyridoindole ring increased potency (compare A01 vs A534). N-methylation on the pyridoindole ring abolished activity (compare A534 vs A600). For substituent R^1 on the piperidine ring, substituted benzyl gave greatest activity (A061 and A662). Other R^1 substituents, including sulfonamide (A145), alkyl (A764) and carbocyclic (A714), reduced activity. Changing the benzylic carbon from methylene (CH2) to ketone (C=O) abolished activity (A815, A350 and A956).
For R^3, pyridine (D003), benzyl (D035) and substituted methyl-pyrazole (D086) abolished activity. […] The D123 pyrazoloquinoline with R^3 substituted with thiophene-quinoline heterocycle gave the best potency.

N1303K-CFTR = molecular target: T2, N1303K-CFTR (Homo sapiens, UniProt P13569, N1303K); assay: Short-circuit current in FRT cells expressing N1303K-CFTR; conditions: N1303K-CFTR FRT cells; for short-circuit current response when added after VX-770: 20 μM forskolin, 5 μM VX-770, then 20 μM compound
T2 construct: expressed in transfected cells
Procedure: Based on prior studies[10],[11],[20], we hypothesized that distinct binding sites may be required to bind a potentiator and co-potentiator to rescue channel activity of CFTR mutants. We defined the potentiator VX-770 as a Class I compound, and co-potentiator ASP-11 as a Class II compound (Fig. 3A,D). Short-circuit current measurements in N1303K-CFTR-expressing FRT cells confirmed synergy when ASP-11 was added after VX-770 (Fig. 3Bi). […] In each experiment, CFTRinh-172 confirmed that current was from CFTR.
Figure 3 Definition of Class I and II CFTR potentiators. (A) Chemical structures of Class I and II potentiators. (B) Short-circuit current in FRT cells expressing N1303K-CFTR in response to forskolin and indicated potentiators. Concentrations: 20 μM forskolin, 5 μM VX-770, 20 μM ASP-11, 20 μM GLPG1837, 20 μM P2, 20 μM P3, 20 μM P5, 20 μM W1282Xpot-C01, and 10 μM CFTRinh-172. C. Short-circuit current in FRT cells expressing Q1313X-CFTR in response to forskolin and indicated potentiators. Concentrations: as in panel B, and 25 μM apigenin. (D) Summary of relative N1303K-CFTR activation in response to combinations of Class I and Class II potentiators. Mean ± S.E.M., n = 3. TEXT PRINTED IN THE PICTURE: (D) VX-770: N1303K-CFTR: P5: 1% ±1%; N1303K-CFTR: GLPG 1837: 10% ±5%; N1303K-CFTR: ASP-11: 100% ±3%; N1303K-CFTR: apigenin: 100% ±5% | (D) P5: N1303K-CFTR: VX-770: 1% ±1%; N1303K-CFTR: GLPG 1837: 2% ±2%; N1303K-CFTR: ASP-11: 52% ±5%; N1303K-CFTR: apigenin: 56% ±5% | (D) GLPG 1837: N1303K-CFTR: VX-770: 0% ±5%; N1303K-CFTR: P5: 2% ±2%; N1303K-CFTR: ASP-11: 100% ±4%; N1303K-CFTR: apigenin: 98% ±5% | (D) ASP-11: N1303K-CFTR: VX-770: 100% ±3%; N1303K-CFTR: P5: 47% ±4%; N1303K-CFTR: GLPG 1837: 100% ±5%; N1303K-CFTR: apigenin: 7% ±3% | (D) apigenin: N1303K-CFTR: VX-770: 100% ±5%; N1303K-CFTR: P5: 50% ±5%; N1303K-CFTR: GLPG 1837: 100% ±5%; N1303K-CFTR: ASP-11: 5% ±2% DOUBTS OF THE COPYIST ABOUT THIS PICTURE: Panel D is a matrix of pairs of substances (row substance combined with column substance). The picture prints no name for the measure, only % values and a 0%–100% colour scale. / The print in panel D is small, so 3, 5, 6 and 8 are hard to tell apart in these values. / VX-770 / GLPG 1837: ±5% could be ±3% / VX-770 / ASP-11: ±3% could be ±5% / VX-770 / apigenin: ±5% could be ±3% / P5 / ASP-11: 52% ±5%, digits uncertain / P5 / apigenin: 56% could be 58%, and ±5% is uncertain / GLPG 1837 / VX-770: 0% ±5%, error digit uncertain / GLPG 1837 / apigenin: 98% could be 96%, and ±5% is uncertain / ASP-11 / VX-770: ±3% could be ±5% / ASP-11 / GLPG 1837: ±5% could be ±3% / ASP-11 / apigenin: 7% ±3%, error digit uncertain / apigenin / VX-770: ±5% could be ±3% / apigenin / P5: 50% ±5%, digits uncertain / apigenin / GLPG 1837: ±5% could be ±3% / apigenin / ASP-11: 5% ±2%, the 5 is uncertain
(§1) Figures 5C,D show data in N1303K- and Q1313X-expressing FRT cells.
(§2) Short-circuit current was measured on cells cultured on Snapwell clear permeable supports (Corning) as described[10],[11]. Hemichambers were connected to a DVC-1000 voltage clamp (World Precision Instruments Inc., Sarasota, FL) via Ag/AgCl electrodes and 3 M KCl agar bridges for recording of the short-circuit current. For human airway epithelial cells, symmetrical HCO3^−-buffered solutions (in mM: 120 NaCl, 5 KCl, 1 MgCl2, 1 CaCl2, 5 Hepes, 25 NaHCO3, 10 glucose, pH 7.4) for basolateral and apical side were used. For FRT cells, the basolateral membrane was permeabilized with 250 μg/ml amphotericin B, and experiments were done with a chloride gradient using a HCO3^−-buffered solutions (Basolateral (mM): 120 NaCl, 5 KCl, 1 MgCl2, 1 CaCl2, 5 Hepes, 25 NaHCO3, 10 glucose, pH 7.4; apical (mM): 60 NaCl, 60 mM sodium gluconate, 5 KCl, 1 MgCl2, 1 CaCl2, 5 Hepes, 25 NaHCO3, 10 glucose, pH 7.4). All cells were equilibrated with 95% O2, 5% CO2 and maintained at 37 °C during experiments.

Q1313X-CFTR = molecular target: T3, Q1313X-CFTR (Homo sapiens, UniProt P13569); assay: Short-circuit current in FRT cells expressing Q1313X-CFTR; conditions: Q1313X-CFTR FRT cells, 20 μM forskolin; for short-circuit current response when added after VX-770: 5 μM VX-770, 20 μM P2, P3, P5, ASP-11, 25 μM apigenin
T3 construct: expressed in transfected cells
Procedure: As shown in Fig. 1C and summarized in Fig. 2, ASP-11 acted in synergy with VX-770 to increase chloride current in FRT cells expressing the NBD2 mutations I1234del- and Q1313X-CFTR by ~3–9-fold compared to VX-770. I1234del- and Q1313X-CFTR-expressing cells were also treated with VX-809 for 24 hours (to consider the effect of available CFTR therapeutics) with 2–3-fold greater currents observed.
Studies on FRT cells expressing Q1313X-CFTR produced similar data (Fig. 3C).
as §1, §2

W1282X-CFTR [2] = molecular target: T1, W1282X-CFTR; assay: Short-circuit current in FRT cells expressing W1282X-CFTR; conditions: VX-809-corrected W1282X-CFTR-expressing FRT cells; for increase in VX-770 current: forskolin and 5 μM VX-770; for EC50: in the presence of forskolin and 5 μM VX-770
Procedure: Given the utility of co-potentiators as possible CF therapeutics for several minimal function CFTR mutants, a screen was done to identify novel co-potentiator scaffolds. Screening used FRT cells stably expressing W1282X-CFTR and the halide-sensitive EYFP-H148Q/I152L/F46L (YFP) that were treated for 24 hours with 3 μM VX-809 to increase CFTR1281 cell surface expression (Fig. 4A). Just prior to assay cells were treated for 10 min with test compounds at 25 μM together with 20 μM forskolin and 15 nM VX-770. CFTR channel activity was deduced from the initial rate of YFP fluorescence quenching in response to addition of iodide-substituted phosphate buffered saline. Primary screening of 120,000 drug-like synthetic small molecules identified 212 compounds giving channel activity >50% of that produced by forskolin, VX-770 and 20 μM ASP-11 (Fig. 4B). […] Each of these compounds added to VX-809-corrected FRT cells expressing W1282X-CFTR produced little current without VX-770 (Fig. 4E).
Figure 4 Novel co-potentiators identified by high-throughput screening. (A) Assay design. (B) Summary of screening workflow and results. (C) Chemical structures of novel co-potentiators identified by screening. (D) Representative short-circuit current data in FRT cells expressing W1282X-CFTR. Concentrations: 20 μM forskolin (fsk), 5 μM VX-770 (n = 3). (E) Effects of sequential addition of 20 μM forskolin followed by 20 μM of A-01, B-01, C-01 and D-01, and 5 μM of VX-770 in FRT cells expressing W1282X-CFTR. CFTRinh-172 was used at 10 μM in all experiments.
as §2

[3] = Table 1, 100% Vmax corresponds to 20 μM ASP-11
[4] = Table 1, piperidine-pyridoindole analogs

T1 sequence (P13569 1-1281 limits assumed): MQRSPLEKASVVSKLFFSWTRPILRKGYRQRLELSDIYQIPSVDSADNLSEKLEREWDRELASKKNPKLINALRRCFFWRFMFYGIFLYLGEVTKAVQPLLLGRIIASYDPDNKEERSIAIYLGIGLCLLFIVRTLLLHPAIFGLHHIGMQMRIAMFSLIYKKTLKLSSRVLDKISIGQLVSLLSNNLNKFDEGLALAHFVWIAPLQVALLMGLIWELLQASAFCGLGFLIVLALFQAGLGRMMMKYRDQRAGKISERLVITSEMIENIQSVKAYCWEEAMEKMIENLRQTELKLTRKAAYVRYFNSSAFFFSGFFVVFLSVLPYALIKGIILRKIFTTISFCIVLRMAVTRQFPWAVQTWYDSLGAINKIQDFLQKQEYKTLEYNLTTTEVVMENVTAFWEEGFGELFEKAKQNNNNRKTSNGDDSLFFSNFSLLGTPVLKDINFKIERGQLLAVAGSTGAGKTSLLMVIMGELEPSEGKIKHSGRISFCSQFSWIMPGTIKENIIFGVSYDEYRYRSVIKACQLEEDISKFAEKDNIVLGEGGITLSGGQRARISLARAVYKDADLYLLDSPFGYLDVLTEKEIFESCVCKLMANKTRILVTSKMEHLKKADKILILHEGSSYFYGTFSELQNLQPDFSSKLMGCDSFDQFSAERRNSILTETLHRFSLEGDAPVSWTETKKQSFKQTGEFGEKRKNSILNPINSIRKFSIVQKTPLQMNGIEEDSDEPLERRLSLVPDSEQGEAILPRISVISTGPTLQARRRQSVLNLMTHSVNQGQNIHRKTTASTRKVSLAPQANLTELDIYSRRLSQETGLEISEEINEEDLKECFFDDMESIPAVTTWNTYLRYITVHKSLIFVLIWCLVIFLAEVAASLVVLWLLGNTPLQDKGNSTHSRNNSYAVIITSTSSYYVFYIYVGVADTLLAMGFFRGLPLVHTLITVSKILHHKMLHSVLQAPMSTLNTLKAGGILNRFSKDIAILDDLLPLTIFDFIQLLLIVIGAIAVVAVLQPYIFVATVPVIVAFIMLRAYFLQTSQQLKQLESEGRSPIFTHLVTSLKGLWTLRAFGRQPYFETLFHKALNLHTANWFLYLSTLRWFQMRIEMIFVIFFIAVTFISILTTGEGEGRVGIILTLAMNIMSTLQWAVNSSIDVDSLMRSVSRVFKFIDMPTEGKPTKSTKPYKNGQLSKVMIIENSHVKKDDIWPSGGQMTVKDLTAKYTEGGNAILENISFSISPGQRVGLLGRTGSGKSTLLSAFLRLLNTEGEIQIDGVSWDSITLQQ
T2 sequence (P13569 whole entry N1303K): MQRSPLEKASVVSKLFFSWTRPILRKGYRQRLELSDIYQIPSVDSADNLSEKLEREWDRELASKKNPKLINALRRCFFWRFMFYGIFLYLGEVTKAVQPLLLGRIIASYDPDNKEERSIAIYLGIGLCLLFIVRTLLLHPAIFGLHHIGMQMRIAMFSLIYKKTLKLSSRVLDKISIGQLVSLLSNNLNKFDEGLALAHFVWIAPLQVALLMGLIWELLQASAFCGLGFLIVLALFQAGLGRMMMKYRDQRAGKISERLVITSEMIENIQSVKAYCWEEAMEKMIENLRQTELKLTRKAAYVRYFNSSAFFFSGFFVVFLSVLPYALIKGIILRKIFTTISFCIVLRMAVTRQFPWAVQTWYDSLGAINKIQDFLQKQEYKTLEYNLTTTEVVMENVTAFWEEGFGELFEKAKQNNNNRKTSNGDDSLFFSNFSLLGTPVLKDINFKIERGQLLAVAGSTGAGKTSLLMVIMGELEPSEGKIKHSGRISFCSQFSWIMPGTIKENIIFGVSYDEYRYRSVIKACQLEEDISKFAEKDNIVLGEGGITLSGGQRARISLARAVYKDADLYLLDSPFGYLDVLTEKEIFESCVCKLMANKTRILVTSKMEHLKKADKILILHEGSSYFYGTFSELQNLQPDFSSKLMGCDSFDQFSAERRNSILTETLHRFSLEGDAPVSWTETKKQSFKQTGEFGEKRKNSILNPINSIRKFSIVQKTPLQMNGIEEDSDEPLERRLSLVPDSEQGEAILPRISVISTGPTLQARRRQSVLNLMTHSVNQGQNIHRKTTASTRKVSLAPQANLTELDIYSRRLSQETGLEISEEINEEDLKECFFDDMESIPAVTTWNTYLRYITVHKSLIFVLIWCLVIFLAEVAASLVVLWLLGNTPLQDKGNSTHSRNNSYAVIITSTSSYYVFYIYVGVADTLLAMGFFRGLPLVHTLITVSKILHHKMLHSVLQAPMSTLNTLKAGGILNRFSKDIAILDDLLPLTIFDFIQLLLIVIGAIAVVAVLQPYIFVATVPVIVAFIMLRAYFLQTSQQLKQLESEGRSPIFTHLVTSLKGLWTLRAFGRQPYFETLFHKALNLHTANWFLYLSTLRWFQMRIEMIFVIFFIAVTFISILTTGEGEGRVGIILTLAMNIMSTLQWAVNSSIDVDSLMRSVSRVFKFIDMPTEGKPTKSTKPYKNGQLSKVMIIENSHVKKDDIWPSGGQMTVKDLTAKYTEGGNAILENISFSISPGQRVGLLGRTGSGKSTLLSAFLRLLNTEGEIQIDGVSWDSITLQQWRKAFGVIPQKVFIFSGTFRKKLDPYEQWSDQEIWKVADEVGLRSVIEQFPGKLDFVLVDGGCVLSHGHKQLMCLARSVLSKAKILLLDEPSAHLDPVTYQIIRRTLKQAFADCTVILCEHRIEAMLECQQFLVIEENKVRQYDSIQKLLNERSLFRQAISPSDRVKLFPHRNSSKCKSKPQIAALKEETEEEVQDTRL
T3 sequence (P13569 1-1312 limits assumed): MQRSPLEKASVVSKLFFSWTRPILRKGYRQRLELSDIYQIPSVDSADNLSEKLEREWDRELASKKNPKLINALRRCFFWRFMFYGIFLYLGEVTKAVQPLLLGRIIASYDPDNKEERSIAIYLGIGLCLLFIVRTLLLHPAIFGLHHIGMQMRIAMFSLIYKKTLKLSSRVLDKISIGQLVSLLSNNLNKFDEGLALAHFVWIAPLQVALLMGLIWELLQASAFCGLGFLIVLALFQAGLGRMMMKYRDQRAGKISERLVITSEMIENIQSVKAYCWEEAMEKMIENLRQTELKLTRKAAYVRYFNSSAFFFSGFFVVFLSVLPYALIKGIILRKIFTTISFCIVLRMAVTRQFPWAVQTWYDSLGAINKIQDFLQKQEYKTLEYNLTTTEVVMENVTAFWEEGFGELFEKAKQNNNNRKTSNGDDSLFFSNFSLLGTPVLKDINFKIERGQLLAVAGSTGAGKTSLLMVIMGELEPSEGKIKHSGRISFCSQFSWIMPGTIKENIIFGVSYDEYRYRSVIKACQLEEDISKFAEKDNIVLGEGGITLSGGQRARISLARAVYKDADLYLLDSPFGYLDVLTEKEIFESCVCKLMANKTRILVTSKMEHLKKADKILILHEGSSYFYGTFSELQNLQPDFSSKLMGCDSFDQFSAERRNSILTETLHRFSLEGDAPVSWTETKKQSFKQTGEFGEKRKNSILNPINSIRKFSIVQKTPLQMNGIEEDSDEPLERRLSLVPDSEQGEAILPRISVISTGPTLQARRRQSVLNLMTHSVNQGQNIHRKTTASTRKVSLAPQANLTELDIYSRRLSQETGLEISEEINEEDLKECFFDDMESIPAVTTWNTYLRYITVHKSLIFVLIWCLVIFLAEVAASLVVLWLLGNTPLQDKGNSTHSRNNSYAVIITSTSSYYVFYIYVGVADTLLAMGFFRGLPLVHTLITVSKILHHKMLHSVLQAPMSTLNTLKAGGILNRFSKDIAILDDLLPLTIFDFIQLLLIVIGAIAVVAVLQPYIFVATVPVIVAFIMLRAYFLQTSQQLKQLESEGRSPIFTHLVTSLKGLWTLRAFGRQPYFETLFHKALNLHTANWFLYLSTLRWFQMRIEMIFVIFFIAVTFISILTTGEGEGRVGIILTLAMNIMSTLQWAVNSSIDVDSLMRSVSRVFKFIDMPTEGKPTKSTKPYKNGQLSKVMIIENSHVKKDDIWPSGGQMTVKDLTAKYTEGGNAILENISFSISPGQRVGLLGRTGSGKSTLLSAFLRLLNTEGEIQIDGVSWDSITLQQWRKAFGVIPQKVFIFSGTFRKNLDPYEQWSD

COc1ccc2[nH]c3c(c2c1)CCNC31CCN(S(C)(=O)=O)CC1 [Compound A145]
Relative Vmax (%) (W1282X-CFTR [1]; [3]): 7% | EC50 (W1282X-CFTR [1]; [4]): > 30 µM

Cc1cc(C)cc(N(Cc2ccc(Cl)cc2)S(=O)(=O)c2cccn3c(C)nnc23)c1 [W1282Xpot-C01]
activation by two Class II potentiators added together (N1303K-CFTR; 20 μM W1282Xpot-C01 and 20 μM ASP-11, no Class I potentiator): little activation | short-circuit current response when added after VX-770 (N1303K-CFTR): activated N1303K-CFTR

CC(C)c1ccc(NC(=O)C(c2ccccc2)N(C)C(=O)Cc2c[nH]c3ccccc23)cc1 (stereo not drawn) [Compound P2]
short-circuit current response when added after VX-770 (N1303K-CFTR): did not further increase current | short-circuit current response when added after VX-770 (Q1313X-CFTR): did not elevate current

COc1cccc(CN2CCC3(CC2)NCCc2c3[nH]c3ccccc23)c1 [Compound A534]
Relative Vmax (%) (W1282X-CFTR [1]; [3]): 24% | EC50 (W1282X-CFTR [1]; [4]): 13 µM

COc1ccc2[nH]c3c(c2c1)CCNC31CCN(Cc2ccc(F)c(F)c2)CC1 [Compound A662]
Relative Vmax (%) (W1282X-CFTR [1]; [3]): 100% | EC50 (W1282X-CFTR [1]; [4]): 2.6 µM

O=C(CN1C(=O)CC(c2cccs2)=Nc2ccccc21)NCc1ccc(Cl)cc1 [CP-B01]
increase in VX-770 current (W1282X-CFTR [2]): ~ 6 fold | EC50 (W1282X-CFTR [2]): 5 µM

COc1ccc2[nH]c3c(c2c1)CCNC31CCN(C)CC1 [Compound A764]
Relative Vmax (%) (W1282X-CFTR [1]; [3]): 6% | EC50 (W1282X-CFTR [1]; [4]): > 30 µM

COc1cccc(CN2CCC3(CC2)NCCc2c3[nH]c3ccc(OC)cc23)c1 [Compound A01]
Relative Vmax (%) (W1282X-CFTR [1]; [3]): 100% | EC50 (W1282X-CFTR [1]; [4]): 10 µM | increase in VX-770 current (W1282X-CFTR [2]): ~ 6 fold | EC50 (W1282X-CFTR [2]): 10 µM

c1ccc(CN2CCC3(CC2)NCCc2c3[nH]c3ccccc23)cc1 [Compound A357]
Relative Vmax (%) (W1282X-CFTR [1]; [3]): 31% | EC50 (W1282X-CFTR [1]; [4]): 16 µM

COc1ccc2[nH]c3c(c2c1)CCNC31CCN(C2CCCCC2)CC1 [Compound A714]
Relative Vmax (%) (W1282X-CFTR [1]; [3]): 18% | EC50 (W1282X-CFTR [1]; [4]): > 30 µM

NC(=O)c1c(NC(=O)c2ccccc2Cl)sc2c1CCCC2 [Compound P5]
short-circuit current response when added after VX-770 (N1303K-CFTR): did not further increase current | short-circuit current response when added after VX-770 (Q1313X-CFTR): did not elevate current

O=c1cc(-c2ccc(O)cc2)oc2cc(O)cc(O)c12 [apigenin]
short-circuit current response when added after VX-770 (Q1313X-CFTR): showed synergy | short-circuit current response when added after GLPG1837 (Q1313X-CFTR; 20 μM GLPG1837): showed synergy

COc1ccc2cc3c(N)nn(C(=O)c4ccccc4Cl)c3nc2c1 [Compound D001]
Relative Vmax (%) (W1282X-CFTR [1]; Table 2, 100% Vmax corresponds to 20 μM ASP-11): 90% | EC50 (W1282X-CFTR [1]; Table 2, pyrazoloquinoline analogs): 15 µM | increase in VX-770 current (W1282X-CFTR [2]): ~ 6 fold | EC50 (W1282X-CFTR [2]): 15 µM

COc1cccc(CN2CCC3(CC2)c2[nH]c4ccccc4c2CCN3C)c1 [Compound A600]
Relative Vmax (%) (W1282X-CFTR [1]; [3]): 4% | EC50 (W1282X-CFTR [1]; [4]): > 30 µM

CCCS(=O)(=O)N1CCCc2ccc(NS(=O)(=O)c3cccs3)cc21 [CP-C01]
increase in VX-770 current (W1282X-CFTR [2]): ~ 6 fold | EC50 (W1282X-CFTR [2]): 8 µM

CCN(c1ccccc1)S(=O)(=O)c1ccc2[nH]cc(C(=O)NCc3ccccc3OC)c(=O)c2c1 [Compound P3]
short-circuit current response when added after VX-770 (N1303K-CFTR): did not further increase current | short-circuit current response when added after VX-770 (Q1313X-CFTR): did not elevate current
